This is an account of results in patent publication US9221810B2, “Substituted bicyclic aromatic compounds as S-nitrosoglutathione reductase inhibitors” (Nivalis Therapeutics, Inc., priority 2010, dated 2015).

Data set [1] relates to mouse model of ovalbumin (OVA)-induced asthma. Nature of the data set: Mouse model of ovalbumin (OVA)-induced asthma: MCh-induced AHR (Penh) and eosinophil infiltrate in BALF. Type of data set: in vivo. The note with it: single IV dose of 10 mg/kg at 24 h prior to assessment. As to the method: A mouse model of ovalbumin (OVA)-induced asthma was used to screen GSNOR inhibitors for efficacy against methacholine (MCh)-induced bronchoconstriction/airway hyper-responsiveness. This is a widely used and well characterized model that presents with an acute, allergic asthma phenotype with similarities to human asthma. Efficacy of GSNOR inhibitors was assessed using a protocol in which GSNOR inhibitors were administered after OVA sensitization and airway challenge, and prior to challenge with MCh. Bronchoconstriction in response to challenge with increasing doses of MCh was assessed using whole body plethysmography (Penh; Buxco). The amount of eosinophil infiltrate into the bronchoaveolar lavage fluid (BALF) was also determined as a measure of lung inflammation. The effects of GSNOR inhibitors were compared to vehicles and to Combivent (inhaled; IH) as the positive control.
OVA (500 μg/ml) in PBS was mixed with equal volumes of 10% (w/v) aluminum potassium sulfate in distilled water and incubated for 60 min. at room temperature after adjustment to pH 6.5 using 10 N NaOH. After centrifugation at 750×g for 5 min, the OVA/alum pellet was resuspended to the original volume in distilled water. Mice received an intraperitoneal (IP) injection of 100 μg OVA (0.2 mL of 500 μg/mL in normal saline) complexed with alum on day 0. Mice were anesthetized by IP injection of a 0.2-mL mixture of ketamine and xylazine (0.44 and 6.3 mg/mL, respectively) in normal saline and were placed on a board in the supine position. Two hundred fifty micrograms (100 μl of a 2.5 mg/ml) of OVA (on day 8) and 125 μg (50 μl of 2.5 mg/ml) OVA (on days 15, 18, and 21) were placed on the back of the tongue of each animal.
In vivo airway responsiveness to methacholine was measured 24 h after the last OVA challenge in conscious, freely moving, spontaneously breathing mice with whole body plethysmography using a Buxco chamber (Wilmington, N.C.). […] The degree of bronchoconstriction was expressed as enhanced pause (Penh), a calculated dimensionless value, which correlates with the measurement of airway resistance, impedance, and intrapleural pressure in the same mouse. Penh readings were taken and averaged for 4 min. after each nebulization challenge. Penh is calculated as follows: Penh=[(Te/Tr−1)×(PEF/PIF)], where Te is expiration time, Tr is relaxation time, PEF is peak expiratory flow, and PIF is peak inspiratory flow×0.67 coefficient. […]
After measurement of airway hyper-reactivity, the mice were exsanguinated by cardiac puncture, and then BALF was collected from either both lungs or from the right lung after tying off the left lung at the mainstem bronchus. Total BALF cells were counted from a 0.05 mL aliquot, and the remaining fluid was centrifuged at 200×g for 10 min at 4° C. […]

Data set [2] can be described thus: Mouse pharmacokinetic (PK) study. Type of data set: in vivo, male BALB/c mice. The following applies: male, BALB/c, plasma, po, 10 mg/kg, IV 2 mg/kg, read-out: oral bioavailability (% F). An excerpt: The mouse was used to determine the pharmacokinetics of compounds of the invention. This species is widely used to assess the bioavailability of compounds by administering both oral (PO) and intravenous (IV) test articles. Efficacy of the compounds of the invention was compared by assessing plasma exposure in male BALB/c mice either via IV or PO administration at the times of peak activity.
Compounds of the invention were reconstituted in a phosphate buffered saline (PBS)/10% Solutol (HS 15) clear solution resulting in a concentration of 0.2 mg/mL and administered to mice (2 mg/kg) as a single IV dose. Animals were dosed via the lateral tail vein. Blood samples were collected at designated time points (0.083, 0.25, 0.5, 1, 2, 4, 8, 16, 24 hours) by cardiac puncture under isoflurane anesthesia (up to 1 mL blood per animal). The blood was collected into tubes containing Li-Heparin. The blood samples were kept on ice until centrifugation within approximately 30 minutes of collection. The plasma was transferred into labeled polypropylene tubes and frozen at −70° C. until analyzed by LC/MS/MS.
The compounds of the invention were reconstituted in 40% Propylene Glycol/40% Propylene Carbonate/20% of a 5% Sucrose clear solution resulting in a concentration of 2 mg/mL and administered to mice (10 mg/kg) as a single oral dose via gavage. Blood samples were collected at 0.25, 0.5, 1, 2, 4, 8, 12, 16, 20 and 24 hours post dose by cardiac puncture under isoflurane anesthesia. The blood was collected in tubes containing Li-Heparin. […] The plasma was transferred into labeled polypropylene tubes and frozen at −70° C. until analyzed by LC/MS/MS.
Plasma samples at each timepoint were analyzed using a LC-MS/MS with a lower limit of quantification (LLOQ) of 1 ng/mL. Plasma was analyzed to determine the amount of the compound of the invention in each sample and regression curves generated for each compounds of the invention in the relevant matrixes. […]
In addition to the above PK parameters, bioavailability (% F) was calculated.

As for `Oc1ccc2nc(-c3ccc(-c4nnn[nH]4)cc3)ccc2c1` [Example 4, 2-(4-(1H-tetrazol-5-yl)phenyl)quinolin-6-ol], in data set [1], the “decrease of eosinophil infiltration into BALF” value is reported as 20 % of vehicle control. For the same compound, the “decrease of MCh-induced AHR” value in data set [1] (p<0.05) is on record as 19 % of vehicle control. In addition, in data set [2], the bioavailability was greater than 9%.

By bioavailability is commonly meant the share of a dose that reaches the circulation, judged against a reference dose that is usually intravenous.
